Columns and labels:
[1] = tested on: subjects with biopsy proven NASH; assay: Prospective, multi-centric, open-label, single arm study in Non-alcoholic steatohepatitis: efficacy parameters; assay type: in vivo, human
Experimental: (§1) Title of the Study—“A prospective, multi-centric, open-label, single arm study to evaluate the safety and efficacy of 4 mg of magnesium salt of compound of formula (I) wherein R is -SMe in a pharmaceutical composition as described above in Non-alcoholic steatohepatitis.”
(§2) To evaluate the safety and efficacy of 4 mg of magnesium salt of compound of formula (I) wherein R is -SMe in Non-alcoholic steatohepatitis (NASH).
(§3) • Primary Efficacy (Time Frame 6 and 12 Weeks): • 1. Change in alanine aminotransferase (ALT) from baseline • Secondary Efficacy (Time Frame 6 and 12 Weeks): • Sustained reduction in ALT level. • C-peptide test for homeostasis model assessment (HOMA) beta and HOMA IR • Triglyceride (TG) Criteria for Safety: • 1. General and Systemic Clinical Examination: Cardiovascular system (CVS), respiratory system (RS), gastro-intestinal system (GIS), central nervous system (CNS) etc. • 2. Laboratory Investigations: Complete blood count (CBC), aspartate aminotransferase(AST), ALT, alkaline phosphatase (ALP), serum bilirubin, γ-glutamyl transpeptidase (GGT), Serum proteins, blood urea nitrogen (BUN), Serum creatinine, creatinine phosphokinase (CPK), fasting plasma glucose (FPG). • 3. Frequency and severity of adverse events (AEs) for all subjects enrolled were recorded. All AEs, were classified using • causality • severity • seriousness Methodology:
(§4) It is an interventional, single arm, safety and efficacy study to explore effect of magnesium salt of compound of formula (I) wherein R is -SMe suitably formulated as described above, on NASH.
Subjects was diagnosed by biopsy as suffering from NASH in last one year and willing to participate in study were invited for screening programme for inclusion in the study.
(§5) All subjects were given suitable formulation of magnesium salt of compound of formula (I) wherein R is -SMe 4 mg for 12 weeks. Lifestyle modification was continued as before the study. Patient was monitored for safety and efficacy of magnesium salt of compound of formula (I) wherein R is -SMe.
(§6) After Clinical evaluations, all baseline safety and efficacy parameters were recorded as per Table (I) given below. All laboratory investigations were carried out after overnight fasting.
(§7) Safety and efficacy parameters were assessed as per Table (I) given below.
Subjects were clinically examined and safety and efficacy parameters were assessed as per Table (I) given below. […]

[2] = tested on: subjects with biopsy proven NASH; assay: Prospective, multi-centric, open-label, single arm study in Non-alcoholic steatohepatitis: safety and tolerability; assay type: in vivo, human
Experimental: as §1, §2, §3, §4, §5, §6
Subjects were clinically examined and given the study medications for four weeks and also safety parameters were assessed as per Table (I)given below.
as §7
Subjects were clinically examined and safety and efficacy parameters were assessed as per Table (I) given below.
If further investigations are required in case of any AE, investigator will be advised to assess the AE and take necessary action, if required. Subjects will be advised to contact the investigator for any complaints within next two weeks. […]

[3] = 4 mg, Safety Population, at Week 3 and at Week 4 (so in the source), FIG. 2
[4] = 4 mg, at 6 and 12 weeks, PP analysis, FIG. 3
[5] = 4 mg, during the study, mild, none considered clinically significant by the investigator

Compound: CCO[C@@H](Cc1ccc(OCCn2c(C)ccc2-c2ccc(SC)cc2)cc1)C(=O)[O-].CCO[C@@H](Cc1ccc(OCCn2c(C)ccc2-c2ccc(SC)cc2)cc1)C(=O)[O-].[Mg+2]
- Change in ALT levels from baseline ([1]; 4 mg for 12 weeks, NASH patients, PP population, visit 3 (week 6) and visit 4 (week 12), FIG. 1): statistically significant reduction
- Patients with sustained reduction in ALT levels ([1]; 4 mg, PP population, visit 3 (week 6)): 63.16 % of patients
- Patients with sustained reduction in ALT levels ([1]; 4 mg, PP population, visit 4 (week 12)): 78.95 % of patients
- Change in Aspartate Transaminase [1, 3]: statistical significant decrease
- Change in alkaline phosphatase [1, 3]: statistical significant decrease
- Change in gamma-glutamyl transpeptidase [1, 3]: statistical significant decrease
- Change in C peptide levels [1, 4]: non-significant change
- Change in HOMA-Beta cell function [1, 4]: non-statistically significant reduction
- Change in HOMA-Insulin Resistance [1, 4]: non-statistically significant reduction
- Decrease in triglyceride as compared to baseline ([1]; 4 mg, patients with baseline TG<150 mg/dl, week 12, PP population, FIG. 4): not statistically significant
- Decrease in serum triglycerides as compared to baseline ([1]; 4 mg, patients with baseline TG≧150 mg/dl, week 6 and 12, PP population, FIG. 4): not statistically significant
- Overall safety and tolerability ([2]; 4 mg for 12 weeks, NASH patients): safe and well tolerated
- Changes from baseline in various laboratory parameters ([2]; 4 mg treatment arm): no persistent changes from baseline
- Deaths or SAEs reported ([2]; 4 mg treatment arm): no deaths or SAEs
- Overall incidence of AEs ([2]; 4 mg treatment arm): Nil
- Change in weight compared to baseline ([2]; 4 mg, NASH patients, visit 2, 3 and 4): no significant change in weight
- Events of raised CPK value [2, 5]: five
- Events of raised creatinine [2, 5]: Few events

— patent US9814697B2, “Composition for nonalcoholic fatty liver disease (NAFLD)” (Cadila Healthcare Limited, priority 2013, dated 2017)
